Experimental data taken from patent US10604476B2, “Fluorinated amide derivatives and their uses as therapeutic agents” (Trillium Therapeutics Inc., priority 2015, dated 2020).

Assays:
[1] = test system: fully kindled (stage 5) seizures, hippocampal kindled rat; assay: Hippocampal kindled rat model (focal seizures); type: in vivo; details: for suppression of fully kindled (stage 5) seizures compared to vehicle controls: <100 mg/kg i.p.
Excerpt: Hippocampal Kindled Rat Test is designed to quantify the anti-convulsant effects of a test compound in the kindled rat model. Rats treated by i.p. injection.
The Kindled Rat is a model of temporal lobe epilepsy, which is the most common and drug-resistant type of adult focal epilepsy (Morimoto et al., 2004). […] This acquired hyper-responsiveness is called kindling and results not only in increased seizure responses but also in an elongation of the after-discharge duration seen on an EEC recording.
Electrodes are implanted into the hippocampus of anesthetized rats, which are then allowed to recover for one week. Following the rapid kindling protocol (Lothman and Williamson, Brain Res 1994, 649:71-84), the rats are stimulated with 200 jiA for 10 s, 50 Hz, every 30 minutes for six hours on alternate days until they are fully kindled (4-5 stimulus days). After one week of rest, the animals are given the same electrical stimulus which serves as a baseline. The animals are pretreated with the test compound (generally via i.p. injection) and then tested at various intervals. At each time point, the behavioral seizure score (BSS) and after-discharge duration (ADD) is recorded. The BSS's are scored according to the following criteria (Racine, Electroencephalogr Clin Neurophysiol 1972, 32:281-94): Stage 1—mouth and facial clonus; Stage 2—stage 1 plus head nodding; Stage 3—stage 2 plus forelimb clonus; Stage 4—stage 3 plus rearing; and Stage 5—stage 4 plus repeated rearing and falling.
The after discharge threshold (ADT) can also be measured in the kindled rat. The ADT is defined as the lowest current at which an after discharge of at least 4 s is elicited. […] The initial stimulation is conducted at an intensity of 20 uA with 10 uA increments every 1-2 min until an after discharge is elicited. Fifteen minutes after the pre-drug threshold determination, a single dose of the test substance is administered to two animals in a volume of 0.04 ml/10 g body weight. In this way the animals serves as its own control. The individual rat ADT is then determined at varying times (i.e., 0.25, 1, 2, and 4 hr) after drug administration.
Ability of a compound to block behavioral seizures and/or decrease the afterdischarge duration (ADD) in a hippocampal kindled rat model. The hippocampal kindled rat provides an experimental model of focal seizures that become secondarily generalized. This rat model is useful for not only identifying compounds effective against partial seizures, but also allows for the investigation of complex brain networks that may contribute to seizure spread and generalization from a focus. Moreover, of the various electrical kindling paradigms described in the literature, the hippocampal kindling model offers several distinct advantages for the routine screening and evaluation of potential anticonvulsant compounds. First, this model provides a temporal framework for assessing drug efficacy in a focal seizure model. Specifically, the refractory period of individual animals is sufficiently short to permit repeated stimulations over a short time span. Second, this kindled rat model can be employed to assess the ability of an investigational compound to block fully kindled seizures evoked by an electrical stimulus. Finally, the hippocampal kindled rat model can also be used to assess the ability of an investigational compound to elevate threshold to focal firing modulation by an investigational drug. Therefore, compounds with a subtle effect on focal seizure activity in the kindled rat are not likely to be overlooked in the threshold test, thereby making the hippocampal kindled rat a useful screen at the ETSP.
Animals are first surgically prepared for kindling acquisition. Adult, male Sprague-Dawley rats (275-300 g) are surgically implanted with bipolar electrodes. Briefly, a bipolar electrode is stereoaxically implanted into the ventral hippocampus (AP −3.6, ML −4.9, VD −5.0 from dura, incisor bar +5.0) under ketamine-xylazine anesthesia. […]

mechanical allodynia = assay: Sciatic ligation model in rats (neuropathic pain); type: in vivo, rat; details: 23 mg/kg i.p.
Excerpt: Animals will be anesthetized with sodium pentobarbital and the depth of anesthesia monitored by their response to a tail pinch and observation of the depth of respiration. Sterile technique will be used throughout the surgery. The upper thigh will be shaved and wiped off with ethanol and betadine. A small incision will then be made in the skin. The underlying muscle of the upper thigh will be separated and the sciatic nerve exposed. The nerve is separated from the surrounding connective tissue and slightly elevated by a pair of fine, curved forceps. Approximately ⅓ to ½ of the nerve is tied off by passing a needle (7.0) and nylon suture through the nerve. The muscle and skin incision are closed off separately with 5.0 suture and the animals kept warm until they have recovered from the anesthesia. […] The rats will be closely monitored daily for the development of infection or untoward effects of the surgery in which case the animals will be immediately euthanized. […] After 30-60 minutes in which to acclimate, a baseline mechanical sensitivity is determined. […] This is repeated until a 50% threshold for withdrawal can be determined. […] Testing will be conducted at the time-to-peak effect of the AED as determined in the acute seizure model (Z. Seltzer et al. Pain 43 1990, 205-218).

Row | SMILES | Average Seizure ([1]; 20 mg/kg) | N/F, number of animals active over the number tested ([1]; 20 mg/kg) | Average Seizure ([1]; 40 mg/kg) | N/F, number of animals active over the number tested ([1]; 40 mg/kg) | Average Seizure ([1]; 80 mg/kg) | N/F, number of animals active over the number tested ([1]; 80 mg/kg) | suppression of fully kindled (stage 5) seizures compared to vehicle controls [1] | EC50, reduction of seizure score (seizure severity) ([1]; hippocampal kindled rat, Example 8) | mechanical allodynia compared to vehicle controls (mechanical allodynia)
1 | C[C@@H](Oc1cc(Cl)cc(C(F)(F)F)c1)C(N)=O [I(D), (2R)-2-[3-chloro-5-(trifluoromethyl)-phenoxy]propanamide] | 4.9 | 1/8 | 2.5 | 1/8 | 1 | 5/8 | dose related suppression | 49.4 ± 1.47 mg/kg | –
2 | NC(=O)COc1cc(C(F)(F)F)cc(C(F)(F)F)c1 [I(F), 2-[3,5 bis(trifluoromethyl)-phenoxy]acetamide;] | – | – | – | – | – | – | dose related suppression | – | significant decrease
